In brackets after ≈: the same amount, converted by molar mass. Where a SMILES comes first, the peptide text is derived from it. Bridges are numbered along the chain shown (N, C = ends). Roman numbers before positions name the chains, in order. [ ]: non-standard residue; d: D form. dDab = NCC[C@@H](N)C(=O)O; Nle = CCCC[C@H](N)C(=O)O; Dab = NCC[C@H](N)C(=O)O; Abu = CC[C@H](N)C(=O)O; Dap = NC[C@H](N)C(=O)O
What was measured:
[1] = test system: human red blood cells (hRBC); assay: Hemolysis; type: cell-based; conditions: red cells of human, 1 h, 200
How it was run: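 Hemoglobin release from PBS-washed hRBC at 20% (v/v), incubated 1 h at 37° C with peptides at 200 μg/mL, is measured at 540 nm. Values are blank corrected and given as a fraction of Triton X-100 lysis × 100%.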

male ICR mice = assay: Tolerability in a mouse model (Maximum Tolerated Dose assay); type: in vivo; conditions: 2 × 30 mg/kg s.c. at a 12-hr interval, groups of 3
How it was run: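 Groups of 3 male ICR mice weighing 23±3 g received two subcutaneous doses, 12 h apart, of 30 or 40 mg/kg in saline adjusted to pH 6.5-7.6. Observation for 30 min after each dose covered autonomic effects and acute toxicity, including death.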

[2] = test system: Klebsiella pneumoniae SSI #3010; type: cell-based; conditions: SSI #3010
How it was run: (§1)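 MIC in μg/mL, read as no visible growth after 18-20 hours at 35° C. Peptides were serially diluted two-fold in MH-II broth plus P-80 (0.002% final, v/v) and inoculated at about 10^6 CFU/mL following the CLSI broth microdilution standard.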

Escherichia coli 926415 = type: cell-based; conditions: 926415
How it was run: as §1

[3] = test system: Pseudomonas aeruginosa ATCC 27853; type: cell-based; conditions: ATCC 27853
How it was run: as §1

[4] = test system: Enterobacter cloacae 848840; type: cell-based; conditions: 848840
How it was run: as §1

[5] = test system: Klebsiella pneumoniae 968733; type: cell-based; conditions: 968733
How it was run: as §1

[6] = test system: Acinetobacter baumannii 872842; type: cell-based; conditions: 872842
How it was run: as §1

[7] = test system: Acinetobacter baumannii DSM 30008; type: cell-based; conditions: DSM 30008
How it was run: as §1

[8] = test system: Escherichia coli ATCC 25922; type: cell-based; conditions: ATCC 25922
How it was run: as §1

Compound	Hemolysis at 200 μg/mL [1]	Mortality and dose (male ICR mice)	MIC [2]	MIC (Escherichia coli 926415)	MIC [3]	MIC [4]	MIC [5]	MIC [6]	MIC [7]	MIC [8]
CC[C@@H]1NC(=O)[C@@H](CC(C)C)NC(=O)[C@H](CCN)NC(=O)[C@@H](NC(=O)[C@H](CN)NC(=O)[C@@H](NC(=O)[C@H](CCN)NC(=O)CC[C@@H]2NC(=O)[C@H](CO)NC(=O)[C@H](Cc3ccc(O)cc3)NC(=O)[C@@H](NC(=O)[C@@H](NC(C)=O)C(C)C)CSSC[C@@H](C(=O)N[C@@H](CO)C(N)=O)NC(=O)[C@H]([C@@H](C)CC)NC(=O)[C@H](CO)NC(=O)[C@H](Cc3c[nH]c4ccccc34)NC(=O)[C@H](CCN)NC(=O)[C@@H](CCN)NC2=O)[C@@H](C)O)CCNC(=O)[C@H]([C@@H](C)O)NC(=O)[C@H](CCN)NC(=O)[C@H](CCN)NC1=O [Ex. 257] (I: Ac-VCYSE[dDab][Dab]WSICS-NH2 / II: [Dab]T[Dap][Dab][Dab][dL][Abu][Dab][Dab]T; disulfide I:2-I:11; amide I:5-II:N; lactam II:4-II:C)	1%	0/3 died at 2 × 30 mg/kg	0.03125 mg/L (≈ 0.0131 µM)	0.0625 mg/L (≈ 0.0262 µM)	0.0625 mg/L (≈ 0.0262 µM)	0.0625 mg/L (≈ 0.0262 µM)	0.125 mg/L (≈ 0.0524 µM)	0.03125 mg/L (≈ 0.0131 µM)	0.03125 mg/L (≈ 0.0131 µM)	0.03125 mg/L (≈ 0.0131 µM)
CC[C@@H]1NC(=O)[C@@H](CC(C)C)NC(=O)[C@H](CCN)NC(=O)[C@@H](NC(=O)[C@H](CN)NC(=O)[C@@H](NC(=O)[C@H](CCN)NC(=O)CC[C@@H]2NC(=O)[C@H]([C@@H](C)O)NC(=O)[C@H](Cc3ccc(O)cc3)NC(=O)[C@@H](NC(=O)[C@@H](NC(C)=O)C(C)C)CSSC[C@@H](C(=O)N[C@@H](CO)C(N)=O)NC(=O)[C@H]([C@@H](C)CC)NC(=O)[C@H](CO)NC(=O)[C@H](Cc3c[nH]c4ccccc34)NC(=O)[C@H](CCN)NC(=O)[C@@H](CCN)NC2=O)[C@@H](C)O)CCNC(=O)[C@H]([C@@H](C)O)NC(=O)[C@H](CCN)NC(=O)[C@H](CCN)NC1=O [Ex. 258] (I: Ac-VCYTE[dDab][Dab]WSICS-NH2 / II: [Dab]T[Dap][Dab][Dab][dL][Abu][Dab][Dab]T; disulfide I:2-I:11; amide I:5-II:N; lactam II:4-II:C)	2%	0/3 died at 2 × 30 mg/kg	0.03125 mg/L (≈ 0.013 µM)	0.25 mg/L (≈ 0.104 µM)	0.0625 mg/L (≈ 0.0261 µM)	0.0625 mg/L (≈ 0.0261 µM)	0.125 mg/L (≈ 0.0521 µM)	0.03125 mg/L (≈ 0.013 µM)	0.03125 mg/L (≈ 0.013 µM)	0.0625 mg/L (≈ 0.0261 µM)
CCCC[C@H](NC(C)=O)C(=O)N[C@H]1CSSC[C@@H](C(=O)N[C@H](C(N)=O)[C@@H](C)O)NC(=O)[C@H]([C@@H](C)CC)NC(=O)[C@H](CO)NC(=O)[C@H](Cc2c[nH]c3ccccc23)NC(=O)[C@H](CCN)NC(=O)[C@@H](CCN)NC(=O)[C@H](CCC(=O)N[C@@H](CCN)C(=O)N[C@H](C(=O)N[C@@H](CN)C(=O)N[C@H]2CCNC(=O)[C@H]([C@@H](C)O)NC(=O)[C@H](CCN)NC(=O)[C@H](CCN)NC(=O)[C@H](CC)NC(=O)[C@@H](CC(C)C)NC(=O)[C@H](CCN)NC2=O)[C@@H](C)O)NC(=O)[C@H](CO)NC(=O)[C@H](Cc2ccc(O)cc2)NC1=O [Ex. 259] (I: Ac-[Nle]CYSE[dDab][Dab]WSICT-NH2 / II: [Dab]T[Dap][Dab][Dab][dL][Abu][Dab][Dab]T; disulfide I:2-I:11; amide I:5-II:N; lactam II:4-II:C)	2%	0/3 died at 2 × 30 mg/kg	0.03125 mg/L (≈ 0.013 µM)	0.125 mg/L (≈ 0.0518 µM)	0.0625 mg/L (≈ 0.0259 µM)	0.0625 mg/L (≈ 0.0259 µM)	0.0625 mg/L (≈ 0.0259 µM)	0.03125 mg/L (≈ 0.013 µM)	0.01562 mg/L (≈ 0.00647 µM)	0.01562 mg/L (≈ 0.00647 µM)

— patent US11629171B2, “Beta-hairpin peptidomimetics” (POLYPHOR AG, priority 2017, dated 2023)
